# Measured values from PubChem BioAssay (NCI).
#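 Growth conditions: 96-well plates. Treatment: test compound, 48 hours, 5 concentrations. Analysis: linear interpolation between bracketing concentrations; unreached endpoints set to highest concentration. At the GI50, growth is halved. The concentration for full growth arrest is given as TGI.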
# Tests used:
# Assay in all cases: growth of human tumour cells (NCI), 48 h
# [1] = test system: SK-OV-3 ovarian
# [2] = test system: A498 renal
# [3] = test system: A549 NSCLC
# [4] = test system: TK-10 renal
# [5] = test system: NCI-H460 lung
# [6] = test system: HOP-62 NSCLC
# [7] = test system: SK-MEL-5 melanoma
# [8] = test system: MOLT-4 leukemia
# [9] = test system: SR leukemia
# [10] = test system: MDA-MB-435
# [11] = test system: OVCAR-3 ovarian
# [12] = test system: NCI-H23 lung
# [13] = test system: KM12 colon
# [14] = test system: M14 melanoma
# [15] = test system: IGROV1 ovarian
# [16] = test system: HS 578T breast
# [17] = test system: CCRF-CEM leukemia
# [18] = test system: OVCAR-5 ovarian
# [19] = test system: BT-549 breast
# [20] = test system: HCT-15 colon
# [21] = test system: LOX IMVI melanoma
# [22] = test system: HOP-92 NSCLC
# [23] = test system: HT29 colon
# [24] = test system: HCC-2998 colon
# [25] = test system: SK-MEL-2 melanoma
# [26] = test system: 786-0 renal
# [27] = test system: SNB-19 CNS
# [28] = test system: CAKI-1 renal
# [29] = test system: EKVX NSCLC
# [30] = test system: SF-295 CNS
# [31] = test system: NCI-H522 lung
# [32] = test system: OVCAR-8 ovarian
# [33] = test system: PC-3 prostate
# [34] = test system: HCT-116 colon
# [35] = test system: ACHN renal
# [36] = test system: MDA-MB-231 breast
# [37] = test system: SNB-75 CNS
# [38] = test system: T-47D breast
# [39] = test system: SW-620 colon
# [40] = test system: MCF7 breast
# [41] = test system: UO-31 renal
# [42] = test system: UACC-257 melanoma
# [43] = test system: NCI/ADR-RES ovarian
# [44] = test system: RPMI-8226 leukemia
# [45] = test system: SF-268 CNS
# [46] = test system: SK-MEL-28 melanoma
# [47] = test system: UACC-62 melanoma
# [48] = test system: OVCAR-4 ovarian
# [49] = test system: HL-60(TB) leukemia
# [50] = test system: DU-145 prostate
# [51] = test system: NCI-H226 lung
# [52] = test system: MALME-3M melanoma
# [53] = test system: COLO 205 colon
# [54] = test system: SF-539 CNS
# [55] = test system: U251 CNS
# [56] = test system: SN12C renal
# [57] = test system: K-562 leukemia
structure (smiles),measurement,setting,value
C=C(C=O)[C@@H]1CC[C@]2(COC(C)=O)CC[C@]3(C)C(CC[C@@H]4[C@@]5(C)CC[C@H](OC(C)=O)C(C)(C)[C@@H]5CC[C@]43C)[C@@H]12 (stereo partly specified),GI50,[1],> 100 µM
same,TGI,[1],> 100 µM
same,GI50,[2],> 100 µM
same,TGI,[2],> 100 µM
same,GI50,[3],> 100 µM
same,TGI,[3],> 100 µM
same,GI50,[4],> 100 µM
same,TGI,[4],> 100 µM
same,GI50,[5],> 100 µM
same,TGI,[5],> 100 µM
same,GI50,[6],> 100 µM
same,TGI,[6],> 100 µM
N#Cc1cnc2ccc(-c3cnc4n[nH]nc4c3)cc2c1N1CCc2cc(F)c(Cl)cc21,GI50,[7],2.83 µM
same,TGI,[7],8.47 µM
same,GI50,[8],2.8 µM
same,TGI,[8],11.4 µM
same,GI50,[1],3.52 µM
same,TGI,[1],19.2 µM
same,GI50,[9],2.3 µM
same,TGI,[9],25.8 µM
same,GI50,[10],3.73 µM
same,TGI,[10],28.6 µM
same,GI50,[11],2.97 µM
same,TGI,[11],24 µM
same,GI50,[12],3.16 µM
same,TGI,[12],16.1 µM
same,GI50,[13],4.66 µM
same,TGI,[13],32.3 µM
same,GI50,[14],5.15 µM
same,TGI,[14],38.2 µM
same,GI50,[15],1.42 µM
same,TGI,[15],6.19 µM
same,GI50,[2],1.87 µM
same,TGI,[2],6.69 µM
same,GI50,[16],1.18 µM
same,TGI,[16],5.26 µM
same,GI50,[17],3.69 µM
same,TGI,[17],21.1 µM
same,GI50,[18],4.07 µM
same,TGI,[18],65.1 µM
same,GI50,[3],3.92 µM
same,TGI,[3],72.6 µM
same,GI50,[19],2.31 µM
same,TGI,[19],14.6 µM
same,GI50,[20],2.71 µM
same,TGI,[20],14 µM
same,GI50,[21],1.76 µM
same,TGI,[21],11.4 µM
same,GI50,[22],1.83 µM
same,TGI,[22],7.97 µM
same,GI50,[23],5.73 µM
same,TGI,[23],35 µM
same,GI50,[24],2.85 µM
same,TGI,[24],14.9 µM
same,GI50,[25],2.74 µM
same,TGI,[25],12.7 µM
same,GI50,[26],3.55 µM
same,TGI,[26],> 100 µM
same,GI50,[27],3.9 µM
same,TGI,[27],77.9 µM
same,GI50,[4],3.23 µM
same,TGI,[4],28.6 µM
same,GI50,[28],2.99 µM
same,TGI,[28],25.2 µM
same,GI50,[5],3.48 µM
same,TGI,[5],17.4 µM
same,GI50,[29],3.26 µM
same,TGI,[29],18.5 µM
same,GI50,[30],2.54 µM
same,TGI,[30],13.3 µM
same,GI50,[31],2.82 µM
same,TGI,[31],16.7 µM
same,GI50,[32],4.62 µM
same,TGI,[32],> 100 µM
same,GI50,[33],3.11 µM
same,TGI,[33],25.5 µM
same,GI50,[34],6.44 µM
same,TGI,[34],25.3 µM
same,GI50,[35],3.62 µM
same,TGI,[35],15.3 µM
same,GI50,[36],3.64 µM
same,TGI,[36],23.3 µM
same,GI50,[37],0.395 µM
same,TGI,[37],5.52 µM
same,GI50,[38],1.68 µM
same,TGI,[38],8 µM
same,GI50,[39],5.2 µM
same,TGI,[39],24.6 µM
same,GI50,[40],1.92 µM
same,TGI,[40],14 µM
same,GI50,[41],1.13 µM
same,TGI,[41],11.1 µM
same,GI50,[42],5.03 µM
same,TGI,[42],44.2 µM
same,GI50,[43],12.8 µM
same,TGI,[43],53.3 µM
same,GI50,[44],3.02 µM
same,TGI,[44],42.5 µM
same,GI50,[45],3.22 µM
same,TGI,[45],84.6 µM
same,GI50,[46],3.68 µM
same,TGI,[46],33.6 µM
same,GI50,[47],2.63 µM
same,TGI,[47],12.6 µM
same,GI50,[48],2.66 µM
same,TGI,[48],22.3 µM
same,GI50,[49],11.5 µM
same,TGI,[49],43.6 µM
same,GI50,[50],4.25 µM
same,TGI,[50],66 µM
same,GI50,[51],2.2 µM
same,TGI,[51],20 µM
same,GI50,[52],2.91 µM
same,TGI,[52],16.4 µM
same,GI50,[53],9.19 µM
same,TGI,[53],34.3 µM
same,GI50,[54],3.17 µM
same,TGI,[54],18.9 µM
same,GI50,[55],4.66 µM
same,TGI,[55],86.6 µM
same,GI50,[56],3.27 µM
same,TGI,[56],41.7 µM
same,GI50,[57],4.67 µM
same,TGI,[57],> 100 µM
same,GI50,[6],3.45 µM
same,TGI,[6],38.7 µM
CCN1C(=O)N(CC)C2SC(N/N=C/c3ccccc3F)=NC21 (stereo unspecified),GI50,[7],0.603 µM
same,TGI,[7],20.7 µM
same,GI50,[8],0.507 µM
same,TGI,[8],> 100 µM
same,GI50,[1],0.569 µM
same,TGI,[1],> 100 µM
same,GI50,[9],0.165 µM
same,TGI,[9],> 100 µM
same,GI50,[10],0.0751 µM
same,TGI,[10],0.274 µM
same,GI50,[11],0.33 µM
same,TGI,[11],> 100 µM
same,GI50,[12],0.467 µM
same,TGI,[12],> 100 µM
same,GI50,[13],0.383 µM
same,TGI,[13],> 54.8 µM
same,GI50,[14],0.206 µM
same,TGI,[14],0.61 µM
same,GI50,[15],0.599 µM
same,TGI,[15],> 100 µM
same,GI50,[2],0.204 µM
same,TGI,[2],0.836 µM
same,GI50,[16],0.299 µM
same,TGI,[16],> 100 µM
same,GI50,[17],0.364 µM
same,TGI,[17],> 100 µM
same,GI50,[18],0.517 µM
same,TGI,[18],> 100 µM
same,GI50,[3],0.526 µM
same,TGI,[3],> 100 µM
same,GI50,[19],0.298 µM
same,TGI,[19],1.59 µM
same,GI50,[20],0.344 µM
same,TGI,[20],> 100 µM
same,GI50,[21],0.556 µM
same,TGI,[21],> 100 µM
same,GI50,[22],1.28 µM
same,TGI,[22],> 25.8 µM
same,GI50,[23],0.323 µM
same,TGI,[23],> 100 µM
same,GI50,[24],0.414 µM
same,TGI,[24],27 µM
same,GI50,[25],0.326 µM
same,TGI,[25],> 100 µM
same,GI50,[26],0.657 µM
same,TGI,[26],> 86.1 µM
same,GI50,[27],0.43 µM
same,TGI,[27],> 100 µM
same,TGI,[4],> 100 µM
same,GI50,[28],0.353 µM
same,TGI,[28],> 100 µM
same,GI50,[5],0.353 µM
same,TGI,[5],> 100 µM
same,GI50,[29],0.57 µM
same,TGI,[29],> 100 µM
same,GI50,[30],0.293 µM
same,TGI,[30],> 100 µM
same,GI50,[31],0.172 µM
same,TGI,[31],0.527 µM
same,GI50,[32],0.425 µM
same,GI50,[33],0.347 µM
same,TGI,[33],> 100 µM
same,GI50,[34],0.369 µM
same,TGI,[34],> 100 µM
same,GI50,[35],0.864 µM
same,TGI,[35],> 100 µM
same,GI50,[36],0.635 µM
same,TGI,[36],> 100 µM
same,GI50,[37],0.207 µM
same,TGI,[37],> 73 µM
same,GI50,[38],0.557 µM
same,TGI,[38],> 100 µM
same,GI50,[39],0.372 µM
same,TGI,[39],> 100 µM
same,GI50,[40],0.267 µM
same,TGI,[40],> 100 µM
same,GI50,[41],0.643 µM
same,TGI,[41],> 100 µM
same,GI50,[42],2.17 µM
same,TGI,[42],> 64.4 µM
same,GI50,[43],0.312 µM
same,TGI,[43],> 65.9 µM
same,GI50,[44],0.355 µM
same,TGI,[44],> 100 µM
same,GI50,[45],4.17 µM
same,TGI,[45],> 100 µM
same,GI50,[46],5.62 µM
same,TGI,[46],> 100 µM
same,GI50,[47],0.295 µM
same,TGI,[47],> 100 µM
same,GI50,[48],> 58.3 µM
same,TGI,[48],> 100 µM
same,GI50,[49],0.199 µM
same,TGI,[49],0.633 µM
same,GI50,[50],0.462 µM
same,TGI,[50],> 100 µM
same,GI50,[51],1.96 µM
same,TGI,[51],> 100 µM
same,GI50,[53],0.298 µM
same,TGI,[53],1.48 µM
same,GI50,[54],0.238 µM
same,TGI,[54],0.772 µM
same,GI50,[55],0.342 µM
same,TGI,[55],> 39.2 µM
same,GI50,[56],0.567 µM
same,TGI,[56],> 100 µM
same,GI50,[57],0.194 µM
same,TGI,[57],> 100 µM
same,GI50,[6],0.474 µM
same,TGI,[6],> 100 µM
